Assay results: PubChem BioAssay AID1259407 (Chemical Carcinogenesis Research Information System (CCRIS), 2018)
Active and inactive are the calls of the source. No rule for the calls is given here.

Test system: CCRIS mutagenicity, Ames/micronucleus/aberration tests
Assay: CCRIS mutagenicity studies
[1] = Test System: AMES SALMONELLA TYPHIMURIUM, Strain/Indicator: TA98, Metabolic Activation: RAT, LIVER, S-9, PHENOBARBITAL, Method: STANDARD PLATE
[2] = Test System: AMES SALMONELLA TYPHIMURIUM, Strain/Indicator: TA100, Metabolic Activation: RAT, LIVER, S-9, PHENOBARBITAL, Method: STANDARD PLATE
[3] = Test System: AMES SALMONELLA TYPHIMURIUM, Strain/Indicator: TA100, Metabolic Activation: NONE, Method: PREINCUBATION
[4] = Test System: AMES SALMONELLA TYPHIMURIUM, Strain/Indicator: TA1537, Metabolic Activation: NONE, Method: STANDARD PLATE

`COc1ccc2c(c1)C(=O)c1c(OC)c(OC)cc3ccnc-2c13` was tested, and the mutagenic call (Test System: AMES SALMONELLA TYPHIMURIUM, Strain/Indicator: TA98, Metabolic Activation: RAT, LIVER, S-9, PHENOBARBITAL AND BETA-NAPHTHOFLAVONE, Method: PREINCUBATION) was “active; positive” and the mutagenic call (Test System: AMES SALMONELLA TYPHIMURIUM, Strain/Indicator: TA100, Metabolic Activation: RAT, LIVER, S-9, PHENOBARBITAL AND BETA-NAPHTHOFLAVONE, Method: PREINCUBATION) was “active; positive”.

`O=c1c2c(O)cccc2oc2c3c(cc(O)c12)O[C@H]1OCC[C@@H]31` was tested, and the mutagenic call [1] was “inactive; negative” and the mutagenic call [2] was “inactive; negative”.

`O=[N+]([O-])C1CCCC1` was tested, and the mutagenic call [3] was “inactive; negative”, the mutagenic call (Test System: AMES SALMONELLA TYPHIMURIUM, Strain/Indicator: TA100, Metabolic Activation: RAT, LIVER, S-9, AROCLOR, Method: PREINCUBATION) was “active; positive” and the mutagenic call (Test System: AMES SALMONELLA TYPHIMURIUM, Strain/Indicator: TA102, Metabolic Activation: NONE, Method: PREINCUBATION) was “inactive; negative”. For the same compound, the mutagenic call (Test System: AMES SALMONELLA TYPHIMURIUM, Strain/Indicator: TA102, Metabolic Activation: RAT, LIVER, S-9, AROCLOR, Method: PREINCUBATION) was “inactive; negative” and the mutagenic call (Test System: UDS RAT HEPATOCYTES, Strain/Indicator: THY INCORP, Metabolic Activation: NONE) was “active; positive”.

With `CN(C)CCn1cc[n+](C)c1/C=N/O` the mutagenic call (Test System: AMES SALMONELLA TYPHIMURIUM, Strain/Indicator: TA97, Metabolic Activation: NONE, Method: STANDARD PLATE) was “inactive; negative”, the mutagenic call (Test System: AMES SALMONELLA TYPHIMURIUM, Strain/Indicator: TA97, Metabolic Activation: S-9, Method: STANDARD PLATE) was “inactive; negative” and the mutagenic call (Test System: AMES SALMONELLA TYPHIMURIUM, Strain/Indicator: TA100, Metabolic Activation: NONE, Method: STANDARD PLATE) was “inactive; negative”. For the same compound, the mutagenic call (Test System: AMES SALMONELLA TYPHIMURIUM, Strain/Indicator: TA100, Metabolic Activation: S-9, Method: STANDARD PLATE) was “inactive; negative”, the mutagenic call (Test System: AMES SALMONELLA TYPHIMURIUM, Strain/Indicator: TA104, Metabolic Activation: NONE, Method: STANDARD PLATE) was “inactive; negative” and the mutagenic call (Test System: AMES SALMONELLA TYPHIMURIUM, Strain/Indicator: TA104, Metabolic Activation: S-9, Method: STANDARD PLATE) was “inactive; negative”. For the same compound, the mutagenic call [4] was “inactive; negative”, the mutagenic call (Test System: AMES SALMONELLA TYPHIMURIUM, Strain/Indicator: TA1537, Metabolic Activation: S-9, Method: STANDARD PLATE) was “inactive; negative” and the mutagenic call (Test System: AMES SALMONELLA TYPHIMURIUM, Strain/Indicator: TA1538, Metabolic Activation: NONE, Method: STANDARD PLATE) was “inactive; negative”. For the same compound, the mutagenic call (Test System: AMES SALMONELLA TYPHIMURIUM, Strain/Indicator: TA1538, Metabolic Activation: S-9, Method: STANDARD PLATE) was “inactive; negative”.

`CC(=O)OC(C)CN(CC(C)OC(C)=O)N=O` (stereo unspecified) was tested, and the mutagenic call (Test System: AMES SALMONELLA TYPHIMURIUM, Strain/Indicator: TA100, Metabolic Activation: HAMSTER, LIVER, S-9, 3-METHYLCHOLANTHRENE, Method: PREINCUBATION) was “active; positive”, the mutagenic call (Test System: AMES SALMONELLA TYPHIMURIUM, Strain/Indicator: TA100, Metabolic Activation: HAMSTER, LIVER, S-9, PHENOBARBITAL, Method: PREINCUBATION) was “active; positive” and the mutagenic call (Test System: AMES SALMONELLA TYPHIMURIUM, Strain/Indicator: TA100, Metabolic Activation: HAMSTER, LIVER, S-9, Method: PREINCUBATION) was “active; positive”. For the same compound, the mutagenic call (Test System: AMES SALMONELLA TYPHIMURIUM, Strain/Indicator: TA100, Metabolic Activation: HUMAN, LIVER, S-9, Method: PREINCUBATION) was “inactive; negative”, the mutagenic call (Test System: AMES SALMONELLA TYPHIMURIUM, Strain/Indicator: TA100, Metabolic Activation: MONKEY, LIVER, S-9, Method: PREINCUBATION) was “active; positive” and the mutagenic call (Test System: AMES SALMONELLA TYPHIMURIUM, Strain/Indicator: TA100, Metabolic Activation: MOUSE, LIVER, S-9, 3-METHYLCHOLANTHRENE, Method: PREINCUBATION) was “active; positive”. The mutagenic call (Test System: AMES SALMONELLA TYPHIMURIUM, Strain/Indicator: TA100, Metabolic Activation: MOUSE, LIVER, S-9, PHENOBARBITAL, Method: PREINCUBATION) was “active; positive”, the mutagenic call (Test System: AMES SALMONELLA TYPHIMURIUM, Strain/Indicator: TA100, Metabolic Activation: MOUSE, LIVER, S-9, Method: PREINCUBATION) was “active; positive” and the mutagenic call [3] was “inactive; negative”. For the same compound, the mutagenic call (Test System: AMES SALMONELLA TYPHIMURIUM, Strain/Indicator: TA100, Metabolic Activation: RABBIT, LIVER, S-9, Method: PREINCUBATION) was “active; positive”, the mutagenic call (Test System: AMES SALMONELLA TYPHIMURIUM, Strain/Indicator: TA100, Metabolic Activation: RAT, LIVER, CYTOSOL, PCB, Method: PREINCUBATION) was “inactive; negative” and the mutagenic call (Test System: AMES SALMONELLA TYPHIMURIUM, Strain/Indicator: TA100, Metabolic Activation: RAT, LIVER, MICROSOMES AND CYTOSOL, PCB, Method: PREINCUBATION) was “active; positive”. For the same compound, the mutagenic call (Test System: AMES SALMONELLA TYPHIMURIUM, Strain/Indicator: TA100, Metabolic Activation: RAT, LIVER, MICROSOMES AND G6PDH, PCB, Method: PREINCUBATION) was “active; positive”, the mutagenic call (Test System: AMES SALMONELLA TYPHIMURIUM, Strain/Indicator: TA100, Metabolic Activation: RAT, LIVER, MICROSOMES, PCB, Method: PREINCUBATION) was “active; positive” and the mutagenic call (Test System: AMES SALMONELLA TYPHIMURIUM, Strain/Indicator: TA100, Metabolic Activation: RAT, LIVER, S-9 (HEATED), PCB, Method: PREINCUBATION) was “inactive; negative”. For the same compound, the mutagenic call (Test System: AMES SALMONELLA TYPHIMURIUM, Strain/Indicator: TA100, Metabolic Activation: RAT, LIVER, S-9, 3-METHYLCHOLANTHRENE, Method: PREINCUBATION) was “active; positive”, the mutagenic call (Test System: AMES SALMONELLA TYPHIMURIUM, Strain/Indicator: TA100, Metabolic Activation: RAT, LIVER, S-9, PCB, Method: PREINCUBATION) was “active; positive” and the mutagenic call (Test System: AMES SALMONELLA TYPHIMURIUM, Strain/Indicator: TA100, Metabolic Activation: RAT, LIVER, S-9, PHENOBARBITAL, Method: PREINCUBATION) was “active; positive”. The mutagenic call (Test System: AMES SALMONELLA TYPHIMURIUM, Strain/Indicator: TA100, Metabolic Activation: RAT, LIVER, S-9, Method: PREINCUBATION) was “active; positive”, the mutagenic call (Test System: AMES SALMONELLA TYPHIMURIUM, Strain/Indicator: TA100, Metabolic Activation: RAT, LIVER, S-9 WITHOUT NADP+, PCB, Method: PREINCUBATION) was “inactive; negative” and the mutagenic call (Test System: AMES SALMONELLA TYPHIMURIUM, Strain/Indicator: TA100, Method: PREINCUBATION) was “active; positive”. For the same compound, the mutagenic call (Test System: CHINESE HAMSTER V-79, Strain/Indicator: V-79/OUABAIN, Metabolic Activation: HAMSTER, HEPATOCYTES, Method: CELL-MEDIATED) was “active; positive”.

For `[O-][N+](=Nc1ccc2c(c1)Cc1ccccc1-2)c1ccc2c(c1)Cc1ccccc1-2`, the mutagenic call (Test System: AMES SALMONELLA TYPHIMURIUM, Strain/Indicator: TA98, Metabolic Activation: NONE, Method: STANDARD PLATE) was “inactive; negative” and the mutagenic call (Test System: AMES SALMONELLA TYPHIMURIUM, Strain/Indicator: TA98, Metabolic Activation: RAT, LIVER, S-9, AROCLOR 1254, Method: STANDARD PLATE) was “inactive; negative”.

In the case of `[N-]=[N+]=Nc1ccc2c(Nc3ccc(C(=O)O)cc3)c3ccccc3nc2c1`, the mutagenic call [4] is reported as “active; positive”.

For `COc1ccc(O)c2c(=O)c3c(OC)cc4c(c3oc12)C1CCOC1O4` (stereo unspecified), the mutagenic call [1] was “inactive; negative” and the mutagenic call [2] was “inactive; negative”.
